In patent US10829520B2, “Beta-hairpin peptidomimetics” (POLYPHOR AG, priority 2015, dated 2020):
Where a SMILES comes first, the peptide text is derived from it. Bridges are numbered along the chain shown (N, C = ends). Roman numbers before positions name the chains, in order. [ ]: non-standard residue; d: D form. Tle = CC(C)(C)[C@H](N)C(=O)O; dDab = NCC[C@@H](N)C(=O)O; Nle = CCCC[C@H](N)C(=O)O; Orn = NCCC[C@H](N)C(=O)O; Dab = NCC[C@H](N)C(=O)O; dAze = O=C(O)[C@H]1CCN1

How the values were obtained:
Assay type in all cases: cell-based
[1] = tested on: Acinetobacter baumannii 872842; conditions: 872842
[2] = tested on: Acinetobacter baumannii DSM 30008; conditions: DSM 30008
Summary of the method: (§1)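 Using the CLSI reference method, each strain at approx. 10^6 CFU/mL was exposed to serially diluted peptide in MH-II broth with 0.002% P-80. After 18-20 h at 35° C, the lowest concentration showing no visible growth gave the MIC.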

[3] = tested on: Escherichia coli 926415; conditions: 926415
[4] = tested on: Escherichia coli ATCC 25922; conditions: ATCC 25922
Summary of the method: as §1

[5] = tested on: Klebsiella pneumoniae 968733; conditions: 968733
[6] = tested on: Klebsiella pneumoniae SSI #3010; conditions: SSI #3010
Summary of the method: as §1

[7] = tested on: Pseudomonas aeruginosa ATCC 27853; conditions: ATCC 27853
Summary of the method: as §1

[8] = tested on: human red blood cells (hRBC); assay: Hemolysis of human red blood cells; conditions: red cells of human, 1 h
Summary of the method: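 Washed fresh human erythrocytes (20% v/v, ~0.9×10^9 cells/mL final) were incubated with peptides at 100 μg/mL for 1 h at 37 °C with shaking. Supernatant OD540 measured; hemolysis expressed as % of 2.5% Triton X-100 lysis, with PBS/0.001% acetic acid as 0%.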

For `CC(C)C[C@@H]1NC(=O)[C@@H](Cc2ccccc2)NC(=O)[C@H](CCN)NC(=O)[C@@H](NC(=O)[C@H](CCN)NC(=O)[C@@H](NC(=O)[C@H](CCN)NC(=O)CC[C@@H]2NC(=O)[C@H](CCN)NC(=O)[C@H](Cc3ccc(O)cc3)NC(=O)[C@H]([C@@H](C)O)NC(=O)[C@H](C(C)C)NC(=O)[C@@H]3CCCN3C(=O)[C@H]3CCN3C(=O)[C@H](CO)NC(=O)[C@H](C)NC(=O)[C@H](C(C)(C)C)NC(=O)[C@H](CCN)NC(=O)[C@H](Cc3c[nH]c4ccccc34)NC(=O)[C@H](CCN)NC(=O)[C@@H](CCN)NC2=O)[C@@H](C)O)CCNC(=O)[C@H]([C@@H](C)O)NC(=O)[C@H](CCN)NC(=O)[C@H](CCN)NC1=O` [Ex. 80] (I: cyclo(W[Dab][Tle]AS[dAze]PVTY[Dab]E[dDab][Dab]) / II: [Dab]T[Dab][Dab][Dab][dF]L[Dab][Dab]T; amide I:12-II:N; lactam II:4-II:C), the “Acinetobacter baumannii 872842 MIC” value [1] was 0.5 µg/mL, the “Acinetobacter baumannii DSM 30008 MIC” value [2] was 0.5 µg/mL and the “Escherichia coli 926415 MIC” value [3] was 0.25 µg/mL. The “Escherichia coli ATCC 25922 MIC” value [4] was 0.25 µg/mL, the “Klebsiella pneumoniae 968733 MIC” value [5] was 1 µg/mL and the “Klebsiella pneumoniae SSI #3010 MIC” value [6] was 0.25 µg/mL. The “Pseudomonas aeruginosa ATCC 27853 MIC” value [7] was 0.25 µg/mL and the “Hemolysis at 100 μg/mL” value [8]; 100 was under 1%.
`CC(C)C[C@@H]1NC(=O)[C@@H](NC(=O)[C@@H](N)Cc2c[nH]c3ccccc23)CSSC[C@@H](C(=O)NCC(=O)N[C@@H](CCN)C(=O)N[C@H](C(=O)N[C@@H](CCN)C(=O)N[C@H]2CCNC(=O)[C@H]([C@@H](C)O)NC(=O)[C@H](CCN)NC(=O)[C@H](CCN)NC(=O)[C@H](CC(C)C)NC(=O)[C@@H](CC(C)C)NC(=O)[C@H](CCN)NC2=O)[C@@H](C)O)NC(=O)[C@H](CC(C)C)NC(=O)[C@H](CO)NC(=O)[C@H](Cc2ccc(O)cc2)NC(=O)[C@@H]2CCCN2C(=O)[C@H]2CCCN2C(=O)[C@H]([C@@H](C)O)NC(=O)[C@H](C)NC1=O` [Ex. 145] (H-WCLAT[dP]PYSLCG[Dab]T[Dab][Dab][Dab][dL]L[Dab][Dab]T; disulfide 2-11; lactam 16-C) was tested, and the “Acinetobacter baumannii 872842 MIC” value [1] was 0.0625 µg/mL, the “Acinetobacter baumannii DSM 30008 MIC” value [2] was 0.03125 µg/mL and the “Escherichia coli 926415 MIC” value [3] was 0.125 µg/mL. The “Escherichia coli ATCC 25922 MIC” value [4] was 0.0625 µg/mL, the “Klebsiella pneumoniae 968733 MIC” value [5] was 0.5 µg/mL and the “Klebsiella pneumoniae SSI #3010 MIC” value [6] was 0.0625 µg/mL. For the same molecule, the “Pseudomonas aeruginosa ATCC 27853 MIC” value [7] was 0.5 µg/mL and the “Hemolysis at 100 μg/mL” value ([8]; 100 μg/mL) was 3%.
`CCCC[C@@H]1NC(=O)[C@@H]2CCCN2C(=O)[C@H]2CCCN2C(=O)[C@H](CO)NC(=O)[C@H](C)NC(=O)[C@H](C(C)(C)C)NC(=O)[C@H](CCN)NC(=O)[C@H](Cc2c[nH]c3ccccc23)NC(=O)[C@H](CCN)NC(=O)[C@H](CC(=O)N[C@@H](CCN)C(=O)N[C@@H](CCN)C(=O)N[C@H]2CCNC(=O)[C@H]([C@@H](C)O)NC(=O)[C@H](CCN)NC(=O)[C@H](CCN)NC(=O)[C@H](CC(C)C)NC(=O)[C@@H](Cc3ccccc3)NC(=O)[C@H](CCN)NC2=O)NC(=O)[C@H](CCCN)NC(=O)[C@H](CCN)NC(=O)[C@H](Cc2ccc(O)cc2)NC(=O)[C@H](CO)NC1=O` [Ex. 4] (I: cyclo([Nle]SY[Dab][Orn]D[Dab]W[Dab][Tle]AS[dP]P) / II: [Dab][Dab][Dab][Dab][dF]L[Dab][Dab]T; amide I:6-II:N; lactam II:3-II:C) was tested, and the “Acinetobacter baumannii 872842 MIC” value [1] was 2 µg/mL, the “Acinetobacter baumannii DSM 30008 MIC” value [2] was 1 µg/mL and the “Escherichia coli 926415 MIC” value [3] was 1 µg/mL. The “Escherichia coli ATCC 25922 MIC” value [4] was 1 µg/mL, the “Klebsiella pneumoniae 968733 MIC” value [5] was 8 µg/mL and the “Klebsiella pneumoniae SSI #3010 MIC” value [6] was 1 µg/mL. The “Pseudomonas aeruginosa ATCC 27853 MIC” value [7] was 0.25 µg/mL and the “Hemolysis at 100 μg/mL” value [8]; 100 was 1%.
For `CC(C)C[C@@H]1NC(=O)[C@H](CCN)NC(=O)[C@@H](CCN)NC(=O)[C@H](CCC(=O)N[C@@H](CCN)C(=O)N[C@H](C(=O)N[C@@H](CCN)C(=O)N[C@H]2CCNC(=O)[C@H]([C@@H](C)O)NC(=O)[C@H](CCN)NC(=O)[C@H](CCN)NC(=O)[C@H](CC(C)C)NC(=O)[C@@H](CC(C)C)NC(=O)[C@H](CCN)NC2=O)[C@@H](C)O)NC(=O)[C@H](CCN)NC(=O)[C@H](Cc2ccc(O)cc2)NC(=O)[C@H](CO)NC(=O)[C@H](CC(C)C)NC(=O)[C@@H]2CCCN2C(=O)[C@H]2CCCN2C(=O)[C@H](Cc2ccc(O)cc2)NC(=O)[C@H]([C@@H](C)O)NC(=O)[C@H](C(C)C)NC(=O)[C@H](CCN)NC1=O` [Ex. 99] (I: cyclo(LSY[Dab]E[dDab][Dab]L[Dab]VTY[dP]P) / II: [Dab]T[Dab][Dab][Dab][dL]L[Dab][Dab]T; amide I:5-II:N; lactam II:4-II:C), the “Acinetobacter baumannii 872842 MIC” value [1] was 0.25 µg/mL, the “Acinetobacter baumannii DSM 30008 MIC” value [2] was 0.25 µg/mL and the “Escherichia coli 926415 MIC” value [3] was 0.25 µg/mL. For the same molecule, the “Escherichia coli ATCC 25922 MIC” value [4] was 0.125 µg/mL, the “Klebsiella pneumoniae 968733 MIC” value [5] was 0.5 µg/mL and the “Klebsiella pneumoniae SSI #3010 MIC” value [6] was 0.25 µg/mL. For the same molecule, the “Pseudomonas aeruginosa ATCC 27853 MIC” value [7] was 0.5 µg/mL and the “Hemolysis at 100 μg/mL” value [8]; 100 was 4%.
With `CC(C)C[C@@H]1NC(=O)[C@@H](CC(C)C)NC(=O)[C@H](CCN)NC(=O)[C@@H](NC(=O)[C@H](CCN)NC(=O)[C@@H](NC(=O)[C@H](CCN)NC(=O)CC[C@@H]2NC(=O)[C@H]([C@@H](C)O)NC(=O)[C@H](Cc3ccc(O)cc3)NC(=O)[C@H]([C@@H](C)O)NC(=O)[C@H](C(C)C)NC(=O)[C@@H]3CCCN3C(=O)[C@H]3CCN3C(=O)[C@H]([C@@H](C)O)NC(=O)[C@H](C)NC(=O)[C@H](C(C)(C)C)NC(=O)[C@H]([C@@H](C)O)NC(=O)[C@H](Cc3c[nH]c4ccccc34)NC(=O)[C@H]([C@@H](C)O)NC(=O)[C@@H]([C@H](C)O)NC2=O)[C@@H](C)O)CCNC(=O)[C@H]([C@@H](C)O)NC(=O)[C@H](CCN)NC(=O)[C@H](CCN)NC1=O` [Ex. 100] (I: cyclo(AT[dAze]PVTYTE[dT]TWT[Tle]) / II: [Dab]T[Dab][Dab][Dab][dL]L[Dab][Dab]T; amide I:9-II:N; lactam II:4-II:C) the “Acinetobacter baumannii 872842 MIC” value [1] was 0.25 µg/mL, the “Acinetobacter baumannii DSM 30008 MIC” value [2] was 0.0625 µg/mL and the “Escherichia coli 926415 MIC” value [3] was 0.5 µg/mL. For the same molecule, the “Escherichia coli ATCC 25922 MIC” value [4] was 0.0625 µg/mL, the “Klebsiella pneumoniae 968733 MIC” value [5] was 2 µg/mL and the “Klebsiella pneumoniae SSI #3010 MIC” value [6] was 0.125 µg/mL. For the same molecule, the “Pseudomonas aeruginosa ATCC 27853 MIC” value [7] was 0.125 µg/mL and the “Hemolysis at 100 μg/mL” value [8]; 100 was 2%.
